In patent US12479849B2, “EGFR inhibitors for the treatment of cancer” (Hoffmann-La Roche Inc., priority 2019, dated 2025):
Counter-ions that a name gives are not always drawn.

Target: T1, EGFR TMLRCS (Homo sapiens, UniProt P00533, C797S/L858R/T790M)
T1 construct: host or cells: BaF3-TMLRCS (Ba/F3 cells, kept under puromycin selection)
Assay: HTRF Phospho EGFR TMLRCS Assay (Cellular)
Format: cell-based
Conditions: BaF3-TMLRCS cell line, 4 hours incubation, Phospho-EGFR HTRF readout
Procedure: HTRF Phospho EGFR TMLRCS Assay (Cellular)
BaF3-TMLRCS cell line were obtained from Crownbio (San Diego, CA, USA). Cells were maintained at 37° C., 5% CO2 in RPMI ATCC (Gibco 31870)+2 mM Glutamine+0.5 μg/ml Puromycin supplemented with 10% fetal bovine serum (FBS) (Gibco).
Cells are transferred as above to Greiner Bio-One, Nr. 784-08 micro-titerplate at 20000 cells/well in 12.5 μl of growth medium/well after the plates had been pre-filled with 12.5 nl of DMSO solutions of the to be tested compounds (in dose response) or DMSO only. After spinning the plates at 300×g for 30 seconds the cells were incubated for 4 hours at 37 C, 5% CO2, 95% humidity. The cells were lysed by adding to the compound mix 4 μl/well of the supplemented lysis buffer (Cis-bio, Phospho-EGFR HTRF kit, 64EG1PEH), followed by incubation for 30 min at room temperature with shaking (400 rpm). The plates were then frozen and stored overnight at −80 C. On the next day and after thawing the plates, 4 μl of a mixture of anti-Phospho-EGFR Cryptate and of anti-Phospho-EGFR-d2 antibody solutions prepared in the supplied detection buffer was added to each well. The lidded plates were then incubated for 4 h at room temperature before reading the fluorescence emission at 616 and 665 nm using an Envision reader (Perkin Elmer). Data was analyzed in similar fashion as above using the normalized ratio of the 665 to 616 signals multiplied by 10000.

Row | Molecule | IC50 [nM]
1 | O=C(Nc1nccs1)C(c1ncn2c1C[C@@H](F)C2)n1cc2c(Cl)cc(-c3ccc(C4CCN(CCF)CC4)cc3)c(Cl)c2n1 (stereo partly drawn) [Example 33, 2-(4,7-Dichloro-6-(4-(1-(2-fluoroethyl)piperidin-4-yl)phenyl)-2H-indazol-2-yl)-2-((R)-6-fluoro-6,7-dihydro-5H-pyrrolo[1,2-c]imidazol-1-yl)-N-(thiazol-2-yl)acetamide] | 7
2 | CCN1CC[C@H](c2ccc(-c3cc(Cl)c4cn(C(C(=O)Nc5nccs5)c5ncn6c5C[C@@H](F)C6)nc4c3Cl)cc2)[C@@H](F)C1 (single isomer, unassigned) [Example 37] | 10
3 | CN(CCN1CC(CO)C1)c1ccc(-c2cc(Cl)c3cn(C(C(=O)Nc4nccs4)c4ncn5c4C[C@@H](F)C5)nc3c2Cl)cc1 (stereo partly shown) [Example 89] | 10
4 | CN(CCN1CCC(CO)CC1)c1ccc(-c2cc(Cl)c3cn(C(C(=O)Nc4nccs4)c4ncn5c4C[C@@H](F)C5)nc3c2Cl)cc1 (stereo partly shown) [Example 79] | 7
5 | CN(CCN1CC(O)C1)c1ccc(-c2cc(Cl)c3cn(C(C(=O)Nc4nccs4)c4ncn5c4C[C@@H](F)C5)nc3c2Cl)cc1 (stereo partly shown) [Example 90] | 12
6 | CCN1C[C@H]2CC(c3ccc(-c4cc(Cl)c5cn(C(C(=O)Nc6nccs6)c6ncn7c6C[C@@H](F)C7)nc5c4Cl)cc3)C[C@H]2C1 (stereo partly drawn) [Example 43, 2-(4,7-Dichloro-6-(4-((3aR,6aS)-2-ethyloctahydrocyclopenta[c]pyrrol-5-yl)phenyl)-2H-indazol-2-yl)-2-((R)-6-fluoro-6,7-dihydro-5H-pyrrolo[1,2-c]imidazol-1-yl)-N-(thiazolyl)acetamide] | 11
7 | O=C(Nc1nccs1)C(c1ncn2c1C[C@@H](F)C2)n1cc2c(Cl)cc(-c3ccc(CCN4CCC(O)CC4)cc3)c(Cl)c2n1 (mixture of isomers) [Example 64, rac-2-(4,7-Dichloro-6-(4-(2-(4-hydroxypiperidin-1-yl)ethyl)phenyl)-2H-indazol-2-yl)-2-((R)-6-fluoro-6,7-dihydro-5H-pyrrolo[1,2-c]imidazol-1-yl)-N-(thiazol-2-yl)acetamide] | 7
8 | O=C(Nc1nccs1)C(c1ncn2c1C[C@@H](F)C2)n1cc2c(Cl)cc(-c3ccc(N4CCC(CN5CCC(O)C5)CC4)cc3)c(Cl)c2n1 (mixture of isomers) [Example 74, rac-2-(4,7-Dichloro-6-(4-(4-((3-hydroxypyrrolidin-1-yl)methyl)piperidin-1-yl)phenyl)-2H-indazol-2-yl)-2-((R)-6-fluoro-6,7-dihydro-5H-pyrrolo[1,2-c]imidazol-1-yl)-N-(thiazol-2-yl)acetamide] | 12
9 | COCCN1CCC(c2ccc(-c3cc(C)c4cn(C(C(=O)Nc5nccs5)c5ncn6c5C[C@@H](F)C6)nc4c3Cl)cc2)CC1 (stereo partly drawn) [Example 130, 2-(7-Chloro-6-(4-(1-(2-methoxyethyl)piperidin-4-yl)phenyl)-4-methyl-2H-indazol-2-yl)-2-((R)-6-fluoro-6,7-dihydro-5H-pyrrolo[1,2-c]imidazol-1-yl)-N-(thiazol-2-yl)acetamide] | 12
10 | CCN1CC[C@@H](c2ccc(-c3cc(Cl)c4cn(C(C(=O)Nc5nccs5)c5ncn6c5C[C@@H](F)C6)nc4c3Cl)cc2)[C@H](F)C1 (mixture of isomers) [Example 38, 2-[4,7-Dichloro-6-[4-[rac-(3S,4S)-1-ethyl-3-fluoro-4-piperidyl]phenyl]indazol-2-yl]-2-[(6R)-6-fluoro-6,7-dihydro-5H-pyrrolo[1,2-c]imidazol-1-yl]-N-thiazol-2-yl-acetamide OR 2-[4,7-Dichloro-6-[4-[rac-(3R,4R)-1-ethyl-3-fluoro-4-piperidyl]phenyl]indazol-2-yl]-2-[(6R)-6-fluoro-6,7-dihydro-5H-pyrrolo[1,2-c]imidazol-1-yl]-N-thiazol-2-yl-acetamide] | 10
11 | CN(C)Cc1ccc(-c2cc(Cl)c3cn(C(C(=O)Nc4nccs4)c4ncn5c4C[C@@H](F)C5)nc3c2Cl)cc1F (mixture of isomers) [Example 49, rac-2-(4,7-Dichloro-6-(4-((dimethylamino)methyl)-3-fluorophenyl)-2H-indazol-2-yl)-2-((R)-6-fluoro-6,7-dihydro-5H-pyrrolo[1,2-c]imidazol-1-yl)-N-(thiazol-2-yl)acetamide] | 8
12 | O=C(Nc1nccs1)C(c1ncn2c1C[C@@H](F)C2)n1cc2c(Cl)cc(-c3ccc(CCCN4CCC(CO)CC4)cc3)c(Cl)c2n1 (mixture of isomers) [Example 47, rac-2-(4,7-Dichloro-6-(4-(3-(4-(hydroxymethyl)piperidin-1-yl)propyl)phenyl)-2H-indazol-2-yl)-2-((R)-6-fluoro-6,7-dihydro-5H-pyrrolo[1,2-c]imidazol-1-yl)-N-(thiazol-2-yl)acetamide] | 8
13 | O=C(Nc1nccs1)C(c1ncn2c1C[C@@H](F)C2)n1cc2c(Cl)cc(-c3ccc(CN4CCC(CCO)CC4)cc3)c(Cl)c2n1 (stereo partly drawn) [Example 78, 2-(4,7-Dichloro-6-(4-((4-(2-hydroxyethyl)piperidin-1-yl)methyl)phenyl)-2H-indazol-2-yl)-2-((R)-6-fluoro-6,7-dihydro-5H-pyrrolo[1,2-c]imidazol-1-yl)-N-(thiazol-2-yl)acetamide] | 3
14 | O=C(Nc1nccs1)C(c1ncn2c1C[C@@H](F)C2)n1cc2c(Cl)cc(-c3ccc(CN4CC5(CC(O)C5)C4)cc3)c(Cl)c2n1 (mixture of isomers) [Example 62, rac-2-(4,7-Dichloro-6-(4-((6-hydroxy-2-azaspiro[3.3]heptan-2-yl)methyl)phenyl)-2H-indazol-2-yl)-2-((R)-6-fluoro-6,7-dihydro-5H-pyrrolo[1,2-c]imidazol-1-yl)-N-(thiazol-2-yl)acetamide] | 8

More lines, in order of falling IC50, values ahead:

Row | IC50 [nM] | Molecule
15 | 33 | O=C(Nc1nccs1)C(c1ncn2c1C[C@@H](F)C2)n1cc2c(Cl)cc(-c3ccc(C4CCNCC4)cc3)c(Cl)c2n1 (mixture of isomers) [Example 30, 2-[4,7-Dichloro-6-(4-piperidin-4-ylphenyl)indazol-2-yl]-2-[rac-(6R)-6-fluoro-6,7-dihydro-5H-pyrrolo[1,2-c]imidazol-1-yl]-N-(1,3-thiazol-2-yl)acetamide hydrochloride]
16 | 13 | 2-(4,7-Dichloro-6-(4-((3S,4S)-3-fluoro-1-(2-methoxyethyl)piperidin-4-yl)phenyl)-2H-indazol-2-yl)-2-((R)-6-fluoro-6,7-dihydro-5H-pyrrolo[1,2-c]imidazol-1-yl)-N-(thiazol-2-yl)acetamide OR 2-(4,7-dichloro-6-(4-((3R,4R)-3-fluoro-1-(2-methoxyethyl)piperidin-4-yl)phenyl)-2H-indazol-2-yl)-2-((R)-6-fluoro-6,7-dihydro-5H-pyrrolo[1,2-c]imidazol-1-yl)-N-(thiazol-2-yl)acetamide [Example 56]
17 | 8 | Cc1c(-c2ccc(N3CCOCC3)cc2)cc(Cl)c2cn(C(C(=O)Nc3nccs3)c3ncn4c3C[C@@H](F)C4)nc12 (stereo partly drawn) [Example 105, 2-(4-Chloro-7-methyl-6-(4-morpholinophenyl)-2H-indazol-2-yl)-2-((R)-6-fluoro-6,7-dihydro-5H-pyrrolo[1,2-c]imidazol-1-yl)-N-(thiazol-2-yl)acetamide]
18 | 8 | CC(O)CN1CCN(c2ccc(-c3cc(Cl)c4cn(C(C(=O)Nc5nccs5)c5ncn6c5C[C@@H](F)C6)nc4c3Cl)cc2)CC1 (mixture of isomers) [Example 71, rac-2-(4,7-Dichloro-6-(4-(4-(2-hydroxypropyl)piperazin-1-yl)phenyl)-2H-indazol-2-yl)-2-((R)-6-fluoro-6,7-dihydro-5H-pyrrolo[1,2-c]imidazol-1-yl)-N-(thiazol-2-yl)acetamide]
19 | 6 | CN1CCN(Cc2ccc(-c3cc(Cl)c4cn(C(C(=O)Nc5nccs5)c5ncn6c5C[C@@H](F)C6)nc4c3Cl)cc2)CC1 (mixture of isomers) [Example 96, rac-2-(4,7-Dichloro-6-(4-((4-methylpiperazin-1-yl)methyl)phenyl)-2H-indazol-2-yl)-2-((R)-6-fluoro-6,7-dihydro-5H-pyrrolo[1,2-c]imidazol-1-yl)-N-(thiazol-2-yl)acetamide]
20 | 5 | O=C(Nc1nccs1)C(c1ncn2c1C[C@@H](F)C2)n1cc2c(Cl)cc(-c3cnc(N4CCOCC4)nc3)c(Cl)c2n1 (stereo partly drawn) [Example 27, 2-(4,7-Dichloro-6-(2-morpholinopyrimidin-5-yl)-2H-indazol-2-yl)-2-((R)-6-fluoro-6,7-dihydro-5H-pyrrolo[1,2-c]imidazol-1-yl)-N-(thiazol-2-yl)acetamide]
21 | 5 | O=C(Nc1nccs1)C(c1ncn2c1C[C@@H](F)C2)n1cc2c(Cl)cc(-c3ccc(CN4CCC(O)CC4)cc3)c(Cl)c2n1 (mixture of isomers) [Example 58, rac-2-(4,7-Dichloro-6-(4-((4-hydroxypiperidin-1-yl)methyl)phenyl)-2H-indazol-2-yl)-2-((R)-6-fluoro-6,7-dihydro-5H-pyrrolo[1,2-c]imidazol-1-yl)-N-(thiazol-2-yl)acetamide]
22 | 4 | O=C(Nc1nccs1)C(c1ncn2c1C[C@@H](F)C2)n1cc2c(Cl)cc(-c3ccc(OCCN4CCC(CO)CC4)cc3)c(Cl)c2n1 (mixture of isomers) [Example 68, rac-2-(4,7-Dichloro-6-(4-(2-(4-(hydroxymethyl)piperidin-1-yl)ethoxy)phenyl)-2H-indazol-2-yl)-2-((R)-6-fluoro-6,7-dihydro-5H-pyrrolo[1,2-c]imidazol-1-yl)-N-(thiazol-2-yl)acetamide]
